Assay results published in ChEMBL document CHEMBL1201862, “PubChem BioAssay data set” (2004).
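Step 1: Grow cells in 96-well plates. Step 2: Expose to compound for 48 hours at 5 concentrations. Step 3: Interpolate endpoints linearly; if unreached, use highest concentration. Abbreviation: GI50, concentration required for 50% inhibition of growth.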 The source made the active and inactive calls. Rule as the data show it: active = GI50 up to about 1.1 µM and inactive = higher.

Columns and labels:
Assay in all cases: inhibition of tumour cell growth, NCI panel, 48 h
786-0 = test system: 786-0
A498 = test system: A498
A549 = test system: A549
ACHN = test system: ACHN
BT-549 = test system: BT-549
CAKI-1 = test system: CAKI-1
CCRF-CEM = test system: CCRF-CEM
COLO 205 = test system: COLO 205
DU-145 = test system: DU-145
EKVX = test system: EKVX
HCC 2998 = test system: HCC 2998
HCT-116 = test system: HCT-116
HCT-15 = test system: HCT-15
HOP-62 = test system: HOP-62
HOP-92 = test system: HOP-92
HT-29 = test system: HT-29
IGROV-1 = test system: IGROV-1
K562 = test system: K562
KM12 = test system: KM12
LOX IMVI = test system: LOX IMVI
M14 = test system: M14
MCF7 = test system: MCF7
MDA-MB-231 = test system: MDA-MB-231
MDA-MB-435 = test system: MDA-MB-435
MDA-N = test system: MDA-N
MOLT-4 = test system: MOLT-4
NCI-H226 = test system: NCI-H226
NCI-H23 = test system: NCI-H23
NCI-H460 = test system: NCI-H460
NCI/ADR-RES = test system: NCI/ADR-RES
OVCAR-3 = test system: OVCAR-3
OVCAR-4 = test system: OVCAR-4
OVCAR-5 = test system: OVCAR-5
OVCAR-8 = test system: OVCAR-8
PC-3 = test system: PC-3
RPMI-8226 = test system: RPMI-8226
RXF 393 = test system: RXF 393
SF-295 = test system: SF-295
SF-539 = test system: SF-539
SK-MEL-28 = test system: SK-MEL-28
SK-MEL-2 = test system: SK-MEL-2
SK-MEL-5 = test system: SK-MEL-5
SN12C = test system: SN12C
SNB-19 = test system: SNB-19
SNB-75 = test system: SNB-75
SR = test system: SR
SW-620 = test system: SW-620
T47D = test system: T47D
U-251 = test system: U-251
UACC-257 = test system: UACC-257
UACC-62 = test system: UACC-62
UO-31 = test system: UO-31
HL-60 = test system: HL-60
Malme-3M = test system: Malme-3M
NCI-H522 = test system: NCI-H522
SF-268 = test system: SF-268
SK-OV-3 = test system: SK-OV-3
TK-10 = test system: TK-10

COP1(=O)NCc2ncccc2O1 (configuration not stated)
GI50 (786-0): > 100 µM (inactive)
GI50 (A498): > 100 µM (inactive)
GI50 (A549): > 100 µM (inactive)
GI50 (ACHN): > 100 µM (inactive)
GI50 (BT-549): > 100 µM (inactive)
GI50 (CAKI-1): > 100 µM (inactive)
GI50 (CCRF-CEM): > 100 µM (inactive)
GI50 (COLO 205): > 100 µM (inactive)
GI50 (DU-145): > 100 µM (inactive)
GI50 (EKVX): > 100 µM (inactive)
GI50 (HCC 2998): > 100 µM (inactive)
GI50 (HCT-116): > 100 µM (inactive)
GI50 (HCT-15): > 100 µM
GI50 (HOP-62): > 100 µM (inactive)
GI50 (HOP-92): > 100 µM (inactive)
GI50 (HT-29): > 100 µM (inactive)
GI50 (IGROV-1): > 100 µM (inactive)
GI50 (K562): > 100 µM (inactive)
GI50 (KM12): > 100 µM (inactive)
GI50 (LOX IMVI): > 100 µM (inactive)
GI50 (M14): > 100 µM (inactive)
GI50 (MCF7): > 100 µM (inactive)
GI50 (MDA-MB-231): > 100 µM (inactive)
GI50 (MDA-MB-435): > 100 µM (inactive)
GI50 (MDA-N): > 100 µM (inactive)
GI50 (MOLT-4): > 100 µM (inactive)
GI50 (NCI-H226): > 100 µM (inactive)
GI50 (NCI-H23): > 100 µM (inactive)
GI50 (NCI-H460): > 100 µM (inactive)
GI50 (NCI/ADR-RES): > 100 µM (inactive)
GI50 (OVCAR-3): > 100 µM (inactive)
GI50 (OVCAR-4): > 100 µM (inactive)
GI50 (OVCAR-5): > 100 µM (inactive)
GI50 (OVCAR-8): > 100 µM (inactive)
GI50 (PC-3): > 100 µM (inactive)
GI50 (RPMI-8226): > 100 µM (inactive)
GI50 (RXF 393): > 100 µM (inactive)
GI50 (SF-295): > 100 µM (inactive)
GI50 (SF-539): > 100 µM (inactive)
GI50 (SK-MEL-28): > 100 µM (inactive)
GI50 (SK-MEL-2): > 100 µM (inactive)
GI50 (SK-MEL-5): > 100 µM (inactive)
GI50 (SN12C): > 100 µM (inactive)
GI50 (SNB-19): > 100 µM (inactive)
GI50 (SNB-75): > 100 µM (inactive)
GI50 (SR): > 100 µM (inactive)
GI50 (SW-620): > 100 µM (inactive)
GI50 (T47D): > 100 µM (inactive)
GI50 (U-251): > 100 µM (inactive)
GI50 (UACC-257): > 100 µM (inactive)
GI50 (UACC-62): > 100 µM (inactive)
GI50 (UO-31): > 100 µM (inactive)

Cc1c(O)c(OC2OC(CO)C(O)C(O)C2O)cc2c1CC[C@@H]1C2(C)C(=O)C[C@]2(C)[C@@H]([C@@](C)(O)C(O)/C=C/C(C)(C)O)[C@H](O)C[C@@]12C (some centres not stated)
GI50 (786-0): > 100 µM (inactive)
GI50 (A498): > 100 µM (inactive)
GI50 (A549): > 100 µM (inactive)
GI50 (ACHN): > 100 µM (inactive)
GI50 (BT-549): > 100 µM (inactive)
GI50 (CAKI-1): > 100 µM (inactive)
GI50 (CCRF-CEM): > 100 µM (inactive)
GI50 (COLO 205): > 100 µM (inactive)
GI50 (DU-145): > 100 µM (inactive)
GI50 (EKVX): > 100 µM (inactive)
GI50 (HCC 2998): > 100 µM (inactive)
GI50 (HCT-116): > 100 µM (inactive)
GI50 (HCT-15): > 100 µM
GI50 (HL-60): > 100 µM (inactive)
GI50 (HOP-62): > 100 µM (inactive)
GI50 (HOP-92): > 100 µM (inactive)
GI50 (HT-29): > 100 µM (inactive)
GI50 (IGROV-1): > 100 µM (inactive)
GI50 (K562): > 100 µM (inactive)
GI50 (KM12): > 100 µM (inactive)
GI50 (LOX IMVI): > 100 µM (inactive)
GI50 (M14): > 100 µM (inactive)
GI50 (MCF7): > 100 µM (inactive)
GI50 (MDA-MB-231): > 100 µM (inactive)
GI50 (MDA-MB-435): > 100 µM (inactive)
GI50 (MDA-N): > 100 µM (inactive)
GI50 (MOLT-4): > 100 µM (inactive)
GI50 (Malme-3M): > 100 µM (inactive)
GI50 (NCI-H226): > 100 µM (inactive)
GI50 (NCI-H23): > 100 µM (inactive)
GI50 (NCI-H460): > 100 µM (inactive)
GI50 (NCI-H522): > 100 µM (inactive)
GI50 (NCI/ADR-RES): > 100 µM (inactive)
GI50 (OVCAR-3): > 100 µM (inactive)
GI50 (OVCAR-4): > 100 µM (inactive)
GI50 (OVCAR-5): > 100 µM (inactive)
GI50 (OVCAR-8): > 100 µM (inactive)
GI50 (PC-3): > 100 µM (inactive)
GI50 (RXF 393): > 100 µM (inactive)
GI50 (SF-268): > 100 µM (inactive)
GI50 (SF-295): > 100 µM (inactive)
GI50 (SF-539): > 100 µM (inactive)
GI50 (SK-MEL-28): > 100 µM (inactive)
GI50 (SK-MEL-2): > 100 µM (inactive)
GI50 (SK-MEL-5): > 100 µM (inactive)
GI50 (SK-OV-3): > 100 µM (inactive)
GI50 (SN12C): > 100 µM (inactive)
GI50 (SNB-19): > 100 µM (inactive)
GI50 (SNB-75): > 100 µM (inactive)
GI50 (SR): > 100 µM (inactive)
GI50 (SW-620): > 100 µM (inactive)
GI50 (T47D): > 100 µM (inactive)
GI50 (TK-10): > 100 µM (inactive)
GI50 (U-251): > 100 µM (inactive)
GI50 (UACC-257): > 100 µM (inactive)
GI50 (UACC-62): > 100 µM (inactive)
GI50 (UO-31): > 100 µM (inactive)

C=C[C@@]1(C)CC(=O)[C@]2(O)[C@@]3(C)[C@@H](OC(C)=O)CCC(C)(C)[C@@H]3[C@H](OC(C)=O)[C@H](OC(C)=O)[C@@]2(C)O1
GI50 (786-0): > 100 µM (inactive)
GI50 (A498): > 100 µM (inactive)
GI50 (A549): > 100 µM (inactive)
GI50 (ACHN): > 100 µM (inactive)
GI50 (BT-549): > 100 µM (inactive)
GI50 (CAKI-1): > 100 µM (inactive)
GI50 (DU-145): > 100 µM (inactive)
GI50 (EKVX): > 100 µM (inactive)
GI50 (HCC 2998): > 100 µM (inactive)
GI50 (HCT-116): > 100 µM (inactive)
GI50 (HCT-15): > 100 µM
GI50 (HOP-62): > 100 µM (inactive)
GI50 (HOP-92): > 100 µM (inactive)
GI50 (HT-29): > 100 µM (inactive)
GI50 (IGROV-1): 56.6 µM (inactive)
GI50 (K562): > 100 µM (inactive)
GI50 (KM12): 36.1 µM (inactive)
GI50 (LOX IMVI): > 100 µM (inactive)
GI50 (M14): > 100 µM (inactive)
GI50 (MCF7): > 100 µM (inactive)
GI50 (MDA-MB-231): > 100 µM (inactive)
GI50 (MDA-MB-435): > 100 µM (inactive)
GI50 (MDA-N): > 100 µM (inactive)
GI50 (MOLT-4): 51.4 µM (inactive)
GI50 (NCI-H226): > 100 µM (inactive)
GI50 (NCI-H23): > 100 µM (inactive)
GI50 (NCI-H460): > 100 µM (inactive)
GI50 (NCI/ADR-RES): > 100 µM (inactive)
GI50 (OVCAR-3): > 100 µM (inactive)
GI50 (OVCAR-4): > 100 µM (inactive)
GI50 (OVCAR-5): > 100 µM (inactive)
GI50 (OVCAR-8): > 100 µM (inactive)
GI50 (PC-3): > 100 µM (inactive)
GI50 (SF-295): > 100 µM (inactive)
GI50 (SF-539): > 100 µM (inactive)
GI50 (SK-MEL-28): > 100 µM (inactive)
GI50 (SK-MEL-2): > 100 µM (inactive)
GI50 (SK-OV-3): > 100 µM (inactive)
GI50 (SN12C): > 100 µM (inactive)
GI50 (SNB-19): > 100 µM (inactive)
GI50 (SNB-75): > 100 µM (inactive)
GI50 (SR): > 100 µM (inactive)
GI50 (SW-620): > 100 µM (inactive)
GI50 (T47D): > 100 µM (inactive)
GI50 (U-251): > 100 µM (inactive)
GI50 (UACC-257): > 100 µM (inactive)
GI50 (UACC-62): > 100 µM (inactive)
GI50 (UO-31): > 100 µM (inactive)
